Data reported in patent publication US20230404893A1, “Oral Care Compositions Comprising Ascorbic Acid Derivatives” (Colgate-Palmolive Company, priority 2020, published 2023).

What was measured:
[1] = Standard brushing study, Toothpaste F samples (starting L 57.3-66.3, twelve teeth per cell); design: species or system bovine; details: ΔW data of Table 14, Toothpaste F
Description: Bovine enamel teeth mounted individually in resin blocks are purchased and brushed with an abrasive paste until initial “L” values were 56-68. Trays are prepared for the brushing machine and each tray consists of six teeth mounted using 3D printed trays. Baseline optical measurements of the bovine teeth are taken using a spectrophotometer and the trays are loaded onto the brushing machine.
Toothbrushes are placed on the brushing machine by removing the head of a manual toothbrush from its handle. Slurry composed of 1:1 ratio by weight of test toothpaste to artificial saliva is prepared and added to each tray. The teeth are brushed for two minutes with 250 grams of pressure at 120 strokes per minute. After brushing is stopped, the slurry is removed and residual toothpaste is rinsed away with deionized water. The brushing treatment is repeated a total of 14 times and measurements are taken every 2 cycles. The teeth are then gently blotted with a paper towel to remove excess liquid and measurements are taken with the spectrophotometer. […] The “L”, “a”, and “b” values are determined and are used to calculate the change in whiteness “ΔW” for each tooth after the treatment. […]

[2] = Color of toothpaste samples measured with a spectrophotometer (L*, a*, b*); format: physicochemical; details: basic toothpaste formulas with sodium ascorbyl phosphate, with/without sodium stearate
Description: To overcome this color issue, surfactants are added to the basic toothpaste formulas in combination with sodium ascorbyl phosphate. Table 15 describes one basic toothpaste formula, to which sodium ascorbyl phosphate and surfactants are added. Three surfactants, sodium stearate, sodium cocoyl glutamate and sodium lauryl isoethionate, are screened, alone and in different combinations with/without sodium ascorbyl phosphate.
Samples of basic toothpaste G with different amounts and combinations of surfactants with/without sodium ascorbyl phosphate are prepared and evaluated for color, as shown in Table 16. A high “b*” value indicates a more yellow color while a lower value indicates a more blue color. A high “L*” value indicates a whiter sample compared to a low “L*” value which indicates a darker sample. As can be observed in Table 16 samples without sodium stearate that incorporate sodium ascorbyl phosphate tends to increase the “b*” value, indicating a more yellow color. Samples that incorporate sodium stearate with sodium ascorbyl phosphate tend to have a relative reduction in “b*” value, indicating less yellow color.

## O=C1O[C@H]([C@@H](O)CO)C([O-])=C1OP(=O)([O-])[O-].[Na+].[Na+].[Na+] [sodium ascorbyl phosphate]
[1]
  whitening efficacy (in words): significant effect on whitening efficacy
[2]
  color of the toothpaste (in words): observable yellow color
